Where a name gives a salt, the structure may show the parent alone. Read-outs that look alike come from different tables or passages of the source.
Columns and labels:
[1] = test system: upregulation of CD11b in GROα stimulated neutrophils in human whole blood; test: Human whole blood assay (CD11b upregulation); assay type: cell-based; settings: Neutrophil, inhibition of CD11b upregulation, GROα 33 nM final, flow cytometry, read-out: pIC50 (human whole blood assay) (converted)
Procedure: The whole blood assay tested the compounds' ability to inhibit the upregulation of CD11b in GROα stimulated neutrophils in human whole blood.
Blood was withdrawn by venipuncture from consented adults and poured into a Sterilin tube containing an anti-coagulant Heparin (10 uL/mL of blood). All the test compounds were dissolved in DMSO to 4 mM and serial diluted across the plate, 1 in 3 to provide 10 point dose response curves. The compounds were then diluted 100 fold in -PBS [Phosphate buffered saline (without Calcium Chloride and Magnesium Chloride)] after which, 1 uL was dispensed in 96 U bottom Costar plates using an FX.
10 uL of blood was transferred to the compound plate using a multi-channel pipette, gently tapped and incubated for 15 minutes, at 37° C. After 15 minutes, the stimulant GROα was diluted to 100 nM in 0.1% BSA (Albumin Bovine Serum)-PBS and 5 uL is dispensed across the whole plate for a final concentration of 33 nM. The plate was gently tapped and incubated further for 15 minutes at 37° C. The plate was placed on ice for 1 minute before addition of 10 uL of an antibody cocktail consisting of CD11b-FITC (40 ug/mL) purchased from BioLegend (address: Cambridge Bioscience, Munro House, Trafalgar Way, Bar Hill, Cambridge, UK) and CD16-PE purchased from BD Pharmingen (address: The Danby Building, Edmung Halley Road, Oxford Science Park, Oxford, UK) (stock concentration 100 tests, 2 mL stock volume is diluted 1 in 5). The plate was placed on ice for 1 hour in the dark. The cells were then fixed using 200 uL/well of 1×FACS (Flow Activated Cell Sorting) Lyse solution (Becton and Dickinson-BD) and on ice for 20 minutes in the dark. The plate was centrifuged at 1600 rpm for 5 minutes and re-suspended with 200 uL of ice cold PBS. This step was repeated twice and on the final step the plate was re-suspended with 50 uL of ice cold -PBS for flow Cytometric analysis.
Samples were run on a Becton and Dickinson (BD)-Acurri C6 Flow Cytometer using a HyperCyt sampling apparatus (IntelliCyt) with a flow rate 2 uL/sec. CD11b upregulation is monitored in neutrophils and identified using a combination of both side scatter and CD16 expression.

recombinant human CXCR2 = target: T1, recombinant human CXCR2 (Homo sapiens, UniProt P25025); test: CXCR2 Tango assay; assay type: cell-based; settings: mean pIC50 of multiple test results; stimulated with 80 nM hCXCL1; reporter gene blue/green emission ratio; read-out: pIC50 (CXCR2 Tango assay) (converted)
T1 construct: TEV protease site; Gal4-VP16 transcription factor
T1 sequence (P25025 1-360): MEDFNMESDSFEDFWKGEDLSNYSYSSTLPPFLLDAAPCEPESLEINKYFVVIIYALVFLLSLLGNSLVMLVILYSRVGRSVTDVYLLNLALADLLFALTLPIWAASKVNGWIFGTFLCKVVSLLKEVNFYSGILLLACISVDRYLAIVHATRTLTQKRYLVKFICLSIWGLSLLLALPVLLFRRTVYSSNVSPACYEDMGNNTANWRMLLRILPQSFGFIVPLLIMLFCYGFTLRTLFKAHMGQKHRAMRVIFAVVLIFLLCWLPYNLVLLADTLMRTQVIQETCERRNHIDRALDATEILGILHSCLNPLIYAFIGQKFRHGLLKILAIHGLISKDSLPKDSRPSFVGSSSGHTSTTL
Summary of the method: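 A stable cell line carries human CXCR2 fused to a TEV site and Gal4-VP16, with protease-tagged arrestin. Cells (~10,000/well) were stimulated overnight at 37 °C with 80 nM hCXCL1 and a 10-point compound dilution. CCF4-AM beta-lactamase FRET (460/530 nm ratio) was read, normalized to hCXCL1 and DMSO, and mean pIC50 reported.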

Row | SMILES | IC50 [1] [µM] | IC50 (recombinant human CXCR2) [µM] | IC50 ([1]; Homo sapiens) [µM]
1 | CC(C)(C1COC1)S(=O)(=O)c1c(Cl)ccc(NC(=O)N[C@@H]2CCC=C2Cl)c1O [Compound 5, (R)-1-(4-chloro-2-hydroxy-3-((2-(oxetan-3-yl)propan-2-yl)sulfonyl)phenyl)-3-(2-chlorocyclopent-2-en-1-yl)urea] | 0.0251 to 2.51 | ≤ 0.01 | –
2 | CC1=CCC[C@H]1NC(=O)Nc1ccc(C#N)c(S(=O)(=O)C(C)(C)C(F)(F)F)c1O [Compound 31, (R)-1-(4-cyano-2-hydroxy-3-((1,1,1-trifluoro-2-methylpropan-2-yl)sulfonyl)phenyl)-3-(2-methylcyclopent-2-en-1-yl)urea] | 0.0251 to 2.51 | ≤ 0.001 | –
3 | CC1(S(=O)(=O)c2c(Cl)ccc(NC(=O)N[C@@H]3CCC=C3Cl)c2O)CCOC1 (stereo partly drawn) [Compound 39, 1-(4-chloro-2-hydroxy-3-((3-methyltetrahydro-furan-3-yl)sulfonyl)phenyl)-3-((R)-2-chlorocyclopent-2-en-1-yl)urea] | 0.0251 to 2.51 | ≤ 0.001 | –
4 | CC1=CCC[C@H]1NC(=O)Nc1ccc(Cl)c(S(=O)(=O)[C@H]2C[C@H](N3CC[C@@H](F)C3)C2)c1O [Compound 49, trans-1-(4-chloro-3-((3-((R)-3-fluoropyrrolidin-1-yl)cyclobutyl)sulfonyl)-2-hydroxyphenyl)-3-((R)-2-methylcyclopent-2-en-1-yl)urea, trifluoroacetic acid salt] | 0.0251 to 2.51 | ≤ 0.001 | –
5 | CC1=CCC[C@H]1NC(=O)Nc1ccc(Cl)c(S(=O)(=O)C(C)(C)C)c1O [Compound 57] | 0.0251 to 2.51 | ≤ 0.001 | –
6 | CC1=CCC[C@H]1NC(=O)Nc1ccc(Cl)c(S(=O)(=O)C(C)(C)C2CCOC2)c1O (stereo partly drawn) [Compound 59, 1-(4-chloro-2-hydroxy-3-((2-(tetrahydrofuran-3-yl)propan-2-yl)sulfonyl)phenyl)-3-((R)-2-methylcyclopent-2-en-1-yl)urea] | 0.0251 to 2.51 | ≤ 0.001 | –
7 | CC1=CCC[C@H]1NC(=O)Nc1ccc(Cl)c(S(=O)(=O)C(C)(C)C2CCOCC2)c1O [Compound 60, (R)-1-(4-chloro-2-hydroxy-3-((2-(tetrahydro-2H-pyran-4-yl)propan-2-yl)sulfonyl)phenyl)-3-(2-methylcyclopent-2-en-1-yl)urea] | 0.0251 to 2.51 | ≤ 0.001 | –
8 | CC1=CCC[C@H]1NC(=O)Nc1ccc(Cl)c(S(=O)(=O)C2(C)CCCOC2)c1O (stereo partly drawn) [Compound 66, 1-(4-chloro-2-hydroxy-3-((3-methyltetrahydro-2H-pyran-3-yl)sulfonyl)phenyl)-3-((R)-2-methylcyclopent-2-en-1-yl)urea] | 0.0251 to 2.51 | ≤ 0.01 | –
9 | CC1=CCC[C@H]1NC(=O)Nc1ccc(Cl)c(S(=O)(=O)C2(C)CCOC2)c1O (stereo partly drawn) [Compound 68, 1-(4-chloro-2-hydroxy-3-((3-methyltetrahydro-furan-3-yl)sulfonyl)phenyl)-3-((R)-2-methylcyclopent-2-en-1-yl)urea] | – | ≤ 0.01 | 0.0251 to 2.51
10 | CC1=CCC[C@H]1NC(=O)Nc1ccc(Cl)c(S(=O)(=O)C2(C)CCOCC2)c1O [Compound 69, (R)-1-(4-chloro-2-hydroxy-3-((4-methyltetrahydro-2H-pyran-4-yl)sulfonyl)phenyl)-3-(2-methylcyclopent-2-en-1-yl)urea] | 0.0251 to 2.51 | ≤ 0.001 | –
11 | [2H]C([2H])([2H])C1(S(=O)(=O)c2c(Cl)ccc(NC(=O)N[C@@H]3CCC=C3C)c2O)CCOCC1 [Compound 70] | 0.0251 to 2.51 | ≤ 0.001 | –
12 | CC1=CCC[C@H]1NC(=O)Nc1ccc(Cl)c(S(=O)(=O)C2(CF)CCOCC2)c1O [Compound 72, (R)-1-(4-chloro-3-((4-(fluoromethyl)tetra-hydro-2H-pyran-4-yl)sulfonyl)-2-hydroxyphenyl)-3-(2-methylcyclopent-2-en-1-yl)urea] | 0.0251 to 2.51 | ≤ 0.01 | –
13 | CC1=CCC[C@H]1NC(=O)Nc1ccc(Cl)c(S(=O)(=O)C2(F)CCOCC2)c1O [Compound 75, (R)-1-(4-chloro-3-((4-fluorotetrahydro-2H-pyran-4-yl)sulfonyl)-2-hydroxyphenyl)-3-(2-methylcyclopent-2-en-1-yl)urea] | 0.0251 to 2.51 | ≤ 0.001 | –
14 | CC1=CCC[C@H]1NC(=O)Nc1ccc(Cl)c(S(=O)(=O)C2CC(F)(F)C2)c1O [Compound 76, (R)-1-(4-chloro-3-((3,3-difluorocyclobutyl)sulfonyl)-2-hydroxyphenyl)-3-(2-methylcyclopent-2-en-1-yl)urea trifluoroacetic acid salt] | 0.0251 to 2.51 | ≤ 0.001 | –

Second part, the molecule after the results:

Row | IC50 [1] [µM] | IC50 (recombinant human CXCR2) [µM] | IC50 ([1]; Homo sapiens) [µM] | SMILES
15 | 0.0251 to 2.51 | ≤ 0.001 | – | CO[C@@H]1CCC[C@H]1S(=O)(=O)c1c(Cl)ccc(NC(=O)N[C@@H]2CCC=C2C)c1O (racemic) [Compound 144, (±)trans-1-(4-chloro-2-hydroxy-3-((2-methoxycyclopent-yl)sulfonyl)phenyl)-3-((R)-2-methylcyclopent-2-en-1-yl)urea, trifluoroacetic acid salt]
16 | 0.0251 to 2.51 | ≤ 0.001 | – | CC1=CCCC1NC(=O)Nc1ccc(Cl)c(S(=O)(=O)C(C)C)c1O (centres unmarked) [Compound 20, 1-(4-chloro-2-hydroxy-3-(isopropylsulfonyl)phenyl)-3-(2-methylcyclopent-2-en-1-yl)urea]
17 | 0.0251 to 2.51 | ≤ 0.001 | – | CC1=CCC[C@H]1NC(=O)Nc1ccc(Cl)c(S(=O)(=O)C(C)c2ccccn2)c1O (stereo partly drawn) [Compound 23, 1-(4-chloro-2-hydroxy-3-((1-(pyridin-2-yl)ethyl)sulfonyl)phenyl)-3-((R)-2-methylcyclopent-2-en-1-yl)urea, trifluoroacetic acid salt]
18 | 0.0251 to 2.51 | ≤ 0.01 | – | CC1=CCC[C@H]1NC(=O)Nc1ccc(Cl)c(S(=O)(=O)C(C)c2ncccn2)c1O (stereo partly drawn) [Compound 27, 1-(4-chloro-2-hydroxy-3-((1-(pyrimidin-2-yl)ethyl)sulfonyl)phenyl)-3-((R)-2-methylcyclopent-2-en-1-yl)urea]
19 | 0.0251 to 2.51 | ≤ 0.01 | – | CC1(S(=O)(=O)c2c(Cl)ccc(NC(=O)N[C@@H]3CCC=C3Cl)c2O)CCOCC1 [Compound 40, (R)-1-(4-chloro-2-hydroxy-3-((4-methyltetrahydro-2H-pyran-4-yl)sulfonyl)phenyl)-3-(2-chlorocyclopent-2-en-1-yl)urea]
20 | 0.0251 to 2.51 | ≤ 0.001 | – | [2H]C([2H])([2H])C1(S(=O)(=O)c2c(Cl)ccc(NC(=O)N[C@@H]3CCC=C3Cl)c2O)CCOCC1 [Compound 41]
21 | 0.0251 to 2.51 | – | – | CC1(S(=O)(=O)c2c(Cl)ccc(NC(=O)N[C@H]3CCC=C3Cl)c2O)CCOCC1 [Compound 42, (S)-1-(4-chloro-2-hydroxy-3-((4-methyltetrahydro-2H-pyran-4-yl)sulfonyl)phenyl)-3-(2-chlorocyclopent-2-en-1-yl)urea]
22 | 0.0251 to 2.51 | ≤ 0.01 | – | CC1=CCC[C@H]1NC(=O)Nc1ccc(Cl)c(S(=O)(=O)C(C)(C)[C@H]2CCOC2)c1O [Compound 56, 1-(4-chloro-2-hydroxy-3-((2-((S)-tetrahydrofuran-3-yl)propan-2-yl)sulfonyl)phenyl)-3-((R)-2-methylcyclopent-2-en-1-yl)urea]
23 | 0.0251 to 2.51 | ≤ 0.001 | – | CC1=CCC[C@H]1NC(=O)Nc1ccc(Cl)c(S(=O)(=O)C(C)(C)CF)c1O [Compound 62, (R)-1-(4-chloro-3-((1-fluoro-2-methylpropan-2-yl)sulfonyl)-2-hydroxyphenyl)-3-(2-methylcyclopent-2-en-1-yl)urea]
24 | 0.0251 to 2.51 | ≤ 0.01 | – | CC1=CCC[C@H]1NC(=O)Nc1ccc(Cl)c(S(=O)(=O)C2CCCOC2)c1O (stereo partly drawn) [Compound 78, 1-(4-chloro-2-hydroxy-3-((tetrahydro-2H-pyran-3-yl)sulfonyl)phenyl)-3-((R)-2-methylcyclopent-2-en-1-yl)urea]

From patent US10106515B2, “1-(cyclopent-2-en-1-yl)-3-(2-hydroxy-3-(arylsulfonyl)phenyl)urea derivatives as CXCR2 inhibitors” (GLAXOSMITHKLINE INTELLECTUAL PROPERTY DEVELOPMENT LIMITED, priority 2014, dated 2018)
